Measurements as given in patent US10550115B2, “1, 4, 8-triazaphenanthrene derivatives for the treatment of neurodegenerative disorders” (Institut Du Cerveau et de la Moëlle Epiniere, priority 2015, dated 2020).

Assays:
[1] = tested on: dopaminergic (TH+) neurons derived from primary cultures of embryonic ventral mesencephalon; experiment: Spontaneous degeneration of dopaminergic neurons in primary cultures of embryonic ventral mesencephalon, TH+ neuron count at DIV 10; assay type: cell-based; details: for viability at 0.1 µM / viability at 1 µM / viability at 10 µM: Neuron, 240 h, read-out: TH+ neurons, % relative to the control ± standard error; for Neuroprotective activity, in words: survival percentage at 10 μM almost equal to that induced by db-cAMP at 1 mM
Method: The compounds of the invention were tested in a model of spontaneous degeneration of dopaminergic neurons derived from primary cultures of embryonic ventral mesencephalon according to the protocol described in the article by S. Guerreiro et a1. (2008). The primary cultures of embryonic ventral mesencephalon thus obtained are mixed cultures containing about 50% neuronal cells and 50% glial cells. Among the neuronal cells, dopaminergic neurons make up 3% of the total neurons, most of the neurons derived from these cultures being GABAergic. Concerning the glial cells, they mainly consist of astrocytes (>95% of the glial cells). These cultures are characterized by spontaneous, progressive and selective death of dopaminergic neurons as a result of a mechanism involving immature astrocytes and calcium dyshomeostasis (E. Rousseau et a1. (2013), D. Toulorge et a1. (2011)). The neuroprotective effect of the compounds of the invention was evaluated by counting dopaminergic (TH^+) neurons stained by tyrosine hydroxylase (TH) immunohistochemistry after 10 days of culture (DIV 10).

[2] = tested on: dopaminergic neurons of the substantia nigra; experiment: MPTP mouse model of Parkinson's disease: survival of TH+ dopaminergic neurons in the substantia nigra; assay type: in vivo; details: MPTP/Iac mice
Method: (§1) The potential neuroprotective effects of Iac were evaluated by measuring striatum dopamine levels and dopamine turnover in the mouse model of Parkinson's disease treated with MPTP (1-methyl-4-phenyl-1,2,3,6-tetrahydropyridine), and by evaluating the number of dopaminergic neurons saved in the substantia nigra. Mice were treated with Iac (50 and 100 mg/kg, p.o., in 1% carboxymethyl cellulose and 0.5% Tween 80) for 11 consecutive days. MPTP (20 mg/kg; intraperitoneal route), or saline solution for the controls, was administered on treatment days 4 to 8. All mice were killed on day 12 following final administration of the treatment, then the striatal tissue was dissected for analysis. The effect of MPTP treatment on striatum dopamine depletion was analysed by high-pressure liquid chromatography (HPLC) in combination with electrochemical detection for measurement of levels of dopamine monoamine (DA), 3,4-dihydroxyphenylacetic acid (DOPAC), and homovanillic acid (HVA).
At the dose of 2×25 mg/kg/d (par os), the near-total survival of TH^+ neurons was observed. Indeed, in the group of mice treated with MPTP/Iac, survival was measured at 93±4% relative to the controls.

[3] = In vivo study of BBB crossing, HPLC-MS/MS of plasma and brain after IV injection; set-up: species or system CD-1 mice
Method: The goal of this study is to confirm, by HPLC coupled to mass spectrometry, the presence of compound Iac in the brain parenchyma after sub-chronic intravenous treatment in mice.
The study is performed with CD-1 mice.
A 0.5 mg/mL solution of compound Iac is prepared in physiological saline containing 10% Cremophor EL®. The same dose of this solution is administered intravenously to 6 mice (2 μL/g).
After 5 min, 3 mice are sacrificed. After 30 min, the other 3 mice are sacrificed.
Blood is drawn, and the plasma is separated by centrifugation. The brain is harvested after intracardiac perfusion. The samples are frozen and stored at −80° C. before treatment.
Plasma: 400 μL of each plasma sample is mixed with 1 mL of acetonitrile to precipitate proteins and extract compound Iac.
Brain: Each brain is ground in 400 μL of physiological saline. 800 μL of acetonitrile is added in order to extract compound Iac.
The treated samples are vortexed for 3 minutes and then placed in a sonicator again for 3 minutes. The precipitated proteins and the solid residues are sedimented by centrifugation (15,000 g, 5 minutes at 4° C.). The supernatants are transferred to a microplate to be analysed by HPLC-MS/MS.
Samples are analysed with the method described below, with detection and quantification, based on peak area, being performed by HPLC-MS/MS in MRM mode.
For the calculation of log [brain]/[plasma] to determine blood-brain barrier crossing, the mean plasma volume of a mouse is evaluated at 1.5 mL.

Aqueous solubility = assay type: physicochemical; details: aqueous medium (not further specified)
[4] = tested on: mouse model of Parkinson's disease treated with MPTP; experiment: MPTP mouse model of Parkinson's disease: striatum dopamine levels and dopamine turnover (HPLC, electrochemical detection); assay type: in vivo; details: MPTP mice
Method: as §1

[5] = 50 mg/kg p.o., 11 consecutive days
[6] = 100 mg/kg p.o., 11 consecutive days

| Structure (SMILES) | viability at 0.1 µM [1] [%] | viability at 1 µM [1] [%] | viability at 10 µM [1] [%] | Neuroprotective activity, in words [1] | other results |
| --- | --- | --- | --- | --- | --- |
| c1cncc(-c2cnc3ccc4ncccc4c3n2)c1 [Iag] | 31.4 ± 1.7 | 48.3 ± 2.4 | 96.6 ± 4.5 | particularly high activity |  |
| c1ccc2ncc(-c3cnc4ccc5ncccc5c4n3)cc2c1 [Iam] | 27.6 ± 2 | 46.7 ± 2.7 | 97.3 ± 3.6 | particularly high activity |  |
| Clc1cnc2ccc3ncccc3c2n1 [Iad] | 27.4 ± 1.6 | 26.5 ± 1.6 | 33.8 ± 1.8 |  |  |
| c1ccc2cc(-c3cnc4ccc5ncccc5c4n3)ccc2c1 [Iaj] | 28.9 ± 1.8 | 42.8 ± 2.1 | 94.9 ± 3.5 | particularly high activity |  |
| c1cnc2ccc3nccnc3c2c1 [Iaa] | 25.7 ± 1.6 | 26.2 ± 1.7 | 30.6 ± 2.3 |  |  |
| Fc1ccc(-c2cnc3ccc4ncccc4c3n2)cc1 [Iah] | 24.4 ± 1.4 | 32.8 ± 1.8 | 42.8 ± 2.2 |  |  |
| COc1cc(-c2cnc3ccc4ncccc4c3n2)cc(OC)c1OC [Iaf] | 27.7 ± 1.6 | 46.8 ± 2.3 | 70.8 ± 3.5 |  |  |
| Oc1cccc(-c2cnc3ccc4ncccc4c3n2)c1 [Iae] | 24.7 ± 1.6 | 47.7 ± 2.6 | 99.3 ± 4.4 | particularly high activity |  |
| c1ccc(-c2cnc3ccc4ncccc4c3n2)cc1 [Iac, 3-phenyl-1,4,8-triazaphenanthrene] | 46.6 ± 2.8 | 64.7 ± 2.9 | 91 ± 3.7 | particularly high activity | Survival of TH+ neurons relative to the controls ([2]; 2×25 mg/kg/d per os): 93±4%; Dopaminergic neuron survival relative to the controls ([2]; 2×50 mg/kg/d per os): 81±4%; Amount (nmol/brain) ([3]; 5 min after IV injection of 1 mg/kg, mice): 5.19 ± 0.25 nmol/brain; Amount (nmol/brain) ([3]; 30 min after IV injection of 1 mg/kg, mice): 0.50 ± 0.07 nmol/brain; Kp at 5 min ([3]; CD-1, brain and plasma, 5 min after IV injection of 1 mg/kg, mean plasma volume of a mouse evaluated at 1.5 mL, read-out: Log [brain]/[plasma]): 0.15 ± 0.05; Kp at 30 min ([3]; CD-1, brain and plasma, 30 min after IV injection of 1 mg/kg, mean plasma volume of a mouse evaluated at 1.5 mL, read-out: Log [brain]/[plasma]): 0.02 ± 0.1; concentration at 5 min ([3]; CD-1, mouse, plasma, 5 min after IV injection of 1 mg/kg, mice): 2470 ± 240 nM; concentration at 30 min ([3]; CD-1, mouse, plasma, 30 min after IV injection of 1 mg/kg, mice): 320 ± 50 nM; Blood-brain barrier crossing in vivo, in words ([3]; after intravenous administration): able to cross the BBB; solubility (Aqueous solubility): < 10 µg/mL; Activity (concentration showing neuroprotective activity in vitro) ([1]; in vitro): 1 µM; Concentration for optimal neuroprotective activity ([1]; in vitro): 10 µM; Decrease in the (DOPAC+HVA)/DA ratio [4, 5]: 30%; Increase of striatum DA levels [4, 5]: 64%; Decrease in the (DOPAC+HVA)/DA ratio [4, 6]: 28%; Increase of striatum DA levels [4, 6]: 78%; Increase of striatum HVA levels [4, 6]: 25%; Effect on DOPAC levels ([4]; 50 and 100 mg/kg p.o.): no significant effect |
| Cc1nc2ccc3ncccc3c2nc1-c1ccc2ccccc2c1 [Ibj] | 58.1 ± 2.8 | 59.2 ± 2.2 | 67.3 ± 2.5 |  |  |
| C#Cc1cnc2ccc3ncccc3c2n1 [Iak] | 38.2 ± 2.1 | 40.7 ± 2.6 | 7 ± 1.3 |  |  |
